Assay results as given in patent US20200261440A1, “ZINC IONOPHORES AND USES THEREOF” (THE UNIVERSITY OF QUEENSLAND, priority 2017, published 2020).
Converted amounts (≈) assume the structure as drawn. Where two headings read alike, the source gives them in different places.

Test system: Klebsiella pneumoniae strain MS6771
Experiment: MIC by broth microdilution (CLSI)
Assay type: cell-based
Conditions: for MIC: Klebsiella pneumoniae, MS6771, Klebsiella pneumoniae; for antibiotic sensitivity of resistant strain: Klebsiella pneumoniae MS6771, addition of sub-inhibitory PBT2+zinc(II) ions
[1] = CQ: 0 μM, Zinc: 0 μM, read-out: MIC
[2] = CQ: 64 μM, Zinc: 256 μM, read-out: MIC
[3] = PBT2: 0 μM, Zinc: 0 μM, read-out: MIC
[4] = PBT2: 64 μM, Zinc: 256 μM, read-out: MIC
[5] = Zinc: 256 μM (CQ panel), read-out: MIC
[6] = Zinc: 256 μM (PBT2 panel), read-out: MIC

For `C[C@@H](O)[C@H]1C(=O)N2C(C(=O)O)=C(S[C@@H]3CN[C@H](C(=O)N(C)C)C3)[C@H](C)[C@H]12` [Meropenem, meropenem], the MIC [1] was 64 µg/mL (≈ 167 µM), the MIC [2] was 8 to 16 µg/mL (≈ 20.9 to 41.7 µM) and the MIC (CQ: 64 μM, read-out: MIC) was 8 to 16 µg/mL (≈ 20.9 to 41.7 µM). The MIC [3] was 64 µg/mL (≈ 167 µM), the MIC [4] was 16 µg/mL (≈ 41.7 µM) and the MIC (PBT2: 64 μM, read-out: MIC) was 32 µg/mL (≈ 83.4 µM). For the same compound, the MIC [5] was 16 to 32 µg/mL (≈ 41.7 to 83.4 µM) and the MIC [6] was 16 to 32 µg/mL (≈ 41.7 to 83.4 µM).

In the case of `C[C@H]1c2cccc(O)c2C(=O)C2=C(O)[C@]3(O)C(=O)C(C(N)=O)=C(O)[C@@H](N(C)C)[C@@H]3[C@@H](O)[C@@H]21` [Doxycycline, doxycycline], the MIC [1] is reported as 8 to 16 µg/mL (≈ 18 to 36 µM), the MIC [2] is reported as 8 µg/mL (≈ 18 µM) and the MIC (CQ: 64 μM, read-out: MIC) is reported as 8 µg/mL (≈ 18 µM). It also gave an MIC [3] of 8 to 16 µg/mL (≈ 18 to 36 µM), an MIC [4] of 4 µg/mL (≈ 9 µM) and an MIC (PBT2: 64 μM, read-out: MIC) of 4 to 8 µg/mL (≈ 9 to 18 µM). The MIC [5] was 8 to 16 µg/mL (≈ 18 to 36 µM) and the MIC [6] was 8 to 16 µg/mL (≈ 18 to 36 µM).

`CO[C@@]1(NC(=O)Cc2cccs2)C(=O)N2C(C(=O)O)=C(COC(N)=O)CS[C@@H]21` [Cefoxitin, cefoxitin] was tested, and the MIC [1] was 128 µg/mL (≈ 299 µM), the MIC [2] was 64 µg/mL (≈ 150 µM) and the MIC (CQ: 64 μM, read-out: MIC) was 64 µg/mL (≈ 150 µM). It also gave an MIC [3] of 128 µg/mL (≈ 299 µM), an MIC [4] of 64 µg/mL (≈ 150 µM) and an MIC (PBT2: 64 μM, read-out: MIC) of 64 µg/mL (≈ 150 µM). It also gave an MIC [5] of 128 µg/mL (≈ 299 µM) and an MIC [6] of 128 µg/mL (≈ 299 µM).

Work on `CC(C)(O/N=C(\C(=O)N[C@@H]1C(=O)N2C(C(=O)[O-])=C(C[n+]3ccccc3)CS[C@H]12)c1csc(N)n1)C(=O)O` [Ceftazidime, ceftazidime] yielded an MIC [1] of 32 µg/mL (≈ 58.5 µM), an MIC [2] of 16 µg/mL (≈ 29.3 µM) and an MIC (CQ: 64 μM, read-out: MIC) of 16 µg/mL (≈ 29.3 µM). It also gave an MIC [3] of 32 µg/mL (≈ 58.5 µM), an MIC [4] of 32 µg/mL (≈ 58.5 µM) and an MIC (PBT2: 64 μM, read-out: MIC) of 32 µg/mL (≈ 58.5 µM). It also gave an MIC [5] of 32 µg/mL (≈ 58.5 µM) and an MIC [6] of 32 µg/mL (≈ 58.5 µM).

Work on `COc1cc(Cc2cnc(N)nc2N)cc(OC)c1OC` [Trimethoprim, trimethoprim] yielded an MIC [1] of over 128 µg/mL, an MIC [2] of over 128 µg/mL and an MIC (CQ: 64 μM, read-out: MIC) of over 128 µg/mL. For the same compound, the MIC [3] was over 128 µg/mL, the MIC [4] was over 128 µg/mL and the MIC (PBT2: 64 μM, read-out: MIC) was over 128 µg/mL. For the same compound, the MIC [5] was over 128 µg/mL and the MIC [6] was over 128 µg/mL.

`CCO/N=C(\C(=O)N[C@@H]1C(=O)N2C(C(=O)[O-])=C(Sc3nc(-c4cc[n+](C)cc4)cs3)CS[C@H]12)c1nsc(N)n1` [Ceftaroline] showed an MIC [1] of over 128 µg/mL, an MIC [2] of over 128 µg/mL and an MIC (CQ: 64 μM, read-out: MIC) of over 128 µg/mL. The MIC [3] was over 128 µg/mL, the MIC [4] was over 128 µg/mL and the MIC (PBT2: 64 μM, read-out: MIC) was over 128 µg/mL. It also gave an MIC [5] of over 128 µg/mL and an MIC [6] of over 128 µg/mL.

With `NCC[C@H](O)C(=O)N[C@@H]1C[C@H](N)[C@@H](O[C@H]2O[C@H](CN)[C@@H](O)[C@H](O)[C@H]2O)[C@H](O)[C@H]1O[C@H]1O[C@H](CO)[C@@H](O)[C@H](N)[C@H]1O` [Amikacin, amikacin] the “antibiotic sensitivity of resistant strain” value was “not”, the MIC [1] was over 128 µg/mL and the MIC [2] was over 128 µg/mL. The MIC (CQ: 64 μM, read-out: MIC) was over 128 µg/mL, the MIC [3] was over 128 µg/mL and the MIC [4] was over 128 µg/mL. It also gave an MIC (PBT2: 64 μM, read-out: MIC) of over 128 µg/mL, an MIC [5] of over 128 µg/mL and an MIC [6] of over 128 µg/mL.

In the case of `CN(C)c1cc(NC(=O)CNC(C)(C)C)c(O)c2c1C[C@H]1C[C@H]3[C@H](N(C)C)C(O)=C(C(N)=O)C(=O)[C@@]3(O)C(O)=C1C2=O` [Tigecycline, tigecycline], the “antibiotic sensitivity of resistant strain” value is reported as “became sensitive”, the MIC (CQ: 0 μM, Zinc: 0 μM) is reported as 4 µg/mL (≈ 6.83 µM) and the MIC (CQ: 64 μM) is reported as 4 µg/mL (≈ 6.83 µM). It also gave an MIC (CQ: 64 μM, Zinc: 256 μM) of 4 µg/mL (≈ 6.83 µM), an MIC (PBT2: 0 μM, Zinc: 0 μM) of 4 µg/mL (≈ 6.83 µM) and an MIC (PBT2: 64 μM) of 2 µg/mL (≈ 3.41 µM). For the same compound, the MIC (PBT2: 64 μM, Zinc: 256 μM) was 2 µg/mL (≈ 3.41 µM), the MIC (Zinc: 256 μM (CQ panel)) was 4 µg/mL (≈ 6.83 µM) and the MIC (Zinc: 256 μM (PBT2 panel)) was 4 µg/mL (≈ 6.83 µM).
